Experimental findings from the NIST ThermoML archive (doi:10.1016/j.tca.2010.08.021) are described below.

For series [1] the following is noted: Crystal; visual observation.
A short description of series [2]: Molar enthalpy of transition or fusion. As to conditions: Crystal; DSC.

Molecules are shown by their SMILES. ± gives the expanded uncertainty stated by the source.

On to `N#CCCC#N` [butanedinitrile], for which, in series [1], the Normal melting temperature was 57.00 ± 1 °C. Moreover, in series [2], the “Molar enthalpy of transition or fusion” value is 0.884 ± 0.0478 kcal/mol.

Take `O=[N+]([O-])c1c(Cl)c(Cl)c(Cl)c(Cl)c1Cl` [pentachloronitrobenzene]: the Normal melting temperature in series [1] came to 145.00 ± 1 °C. Also, in series [2], the “Molar enthalpy of transition or fusion” value was determined as 4.59 ± 0.143 kcal/mol.
